{
  "source": "patent US8193201B2",
  "about": "“Synergistic anti-inflammatory pharmaceutical compositions and related methods using curcuminoids or methylxanthines” (priority 2004, dated 2012)",
  "origin": "cited, not measured here",
  "tested_on": "PGE2",
  "conditions": "value reported in the literature (Fiebich et al.)",
  "data": [
    {"smiles": "Cn1c(=O)c2c(ncn2C)n(C)c1=O", "note": "[Caffeine, caffeine]", "values": [
      {"measurement": "median PGE2 inhibitory concentration", "result": 8.2, "unit": "µg/mL"}
    ]}
  ]
}
